Where two headings read alike, the source gives them in different places.
Experiments:
[1] = format: in vitro ADME; conditions: 1 µM
Procedure: The ^177Lu-labeled peptides (50 MBq/nmol) were incubated in mouse or human blood plasma (10 MBq/200 µL) over an incubation period of 24 h at 37 °C. Aliquots and control samples of the radiopeptides diluted in saline were analyzed after 1 h, 4 h and 24 h using thin layer chromatography (TLC) as previously reported (Supplementary Material). The distribution coefficients (logD values) of the ^177Lu-labeled peptides (50 MBq/nmol) were determined using a shake-flask method according to a previously published procedure (Supplementary Material).
Methods: A sample of each radiopeptide (50 MBq/nmol) was added to mouse blood plasma (Lot: 32321, Rockland Immunochemicals Inc., USA) or to human blood plasma (Stiftung Blutspende SRK Aargau-Solothurn, Switzerland) to obtain an activity concentration of 10 MBq/200 µL. The test samples were incubated at 37 °C for up to 24 h. Control samples referred to the radiopeptides which were instead diluted in saline at an activity concentration of 10 MBq/200 µL. Aliquots of each sample (2 µL, ~100 kBq) were taken after 1 h, 4 h and 24 h and investigated by means of thin layer chromatography (TLC). The employed method involved reversed-phase TLC plates (MERCK Analytical Chromatography, TLC Silica gel 60 RP-18 F254s) as stationary phase and ACN/citrate buffer (3:7; v/v; pH 5.5) as mobile phase. After the eluent reached the front line, the TLC plates were dried and exposed to a phosphor screen (Super resolution screen PSR10450013, PerkinElmer) for 1 min. The respective screen was developed using a storage phosphor system (Cyclone Plus, PerkinElmer) and analyzed using the OptiQuant Software (version 5.0, Bright Instrument Co Ltd., PerkinElmer).

in vivo = conditions: CD1 nude, mouse, 0.5 nmol/mouse, total radioactivity
human uPAR = molecular target: T1, human uPAR (Homo sapiens, UniProt Q03405); assay: uPAR-binding affinity, saturation binding on HEK-uPAR cells; conditions: 4 °C
T1 construct: host or cells: HEK cells transfected with human uPAR (HEK-uPAR)
T1 sequence (Q03405 23-335): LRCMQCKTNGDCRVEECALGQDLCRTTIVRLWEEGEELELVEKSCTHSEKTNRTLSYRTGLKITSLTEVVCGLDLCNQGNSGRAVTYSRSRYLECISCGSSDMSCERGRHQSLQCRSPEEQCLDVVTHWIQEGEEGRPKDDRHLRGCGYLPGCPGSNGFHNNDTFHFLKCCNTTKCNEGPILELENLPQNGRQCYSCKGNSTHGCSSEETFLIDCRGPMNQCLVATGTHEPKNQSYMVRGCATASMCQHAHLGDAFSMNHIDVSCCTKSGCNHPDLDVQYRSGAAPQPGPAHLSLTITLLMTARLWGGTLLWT
Procedure: To determine the uPAR-binding affinity of the radiopeptides, saturation binding experiments were performed according to a previously published procedure using HEK-uPAR cells in 48-well plates (Supplementary Material). The assay was performed on ice (at 4 °C) to prevent target internalization upon binding of the radiopeptides. The cells were incubated with the radiopeptides in the presence or absence of excess AE105 (40 µM) together with the respective radiopeptides at concentrations ranging between 1 nM and 1600 nM. After removal of the supernatant, the HEK-uPAR cells were rinsed and lysed to be measured using a γ-counter (Wallac Wizard 1480, PerkinElmer). The KD values were determined by plotting the specific binding (values of cell samples incubated without AE105 minus the respective values of samples incubated with AE105) against the molar concentration of the added peptide. A nonlinear regression analysis was performed using GraphPad Prism software (version 10.1.1). The results are reported as average of KD values ± SD of n = 3 independent experiments. Methods: HEK-uPAR cells were seeded in poly-D-lysine-coated 48-well plates (0.25 × 10^6 in 0.5 mL per well) using DMEM culture medium with supplements. The cells were incubated at 37 °C and 5% CO2 overnight to allow adhesion and growth. The well plates with HEK-uPAR cells were placed on ice for the entire experiment to prevent internalization of the radiopeptides. After removal of the medium, the HEK-uPAR cells were rinsed with cold PBS (0.5 mL, pH 7.4) followed by the addition of DMEM culture medium without supplements (450 µL/well) in the presence or absence of AE105 (final concentration 40 µM) as a receptor blocking agent. The cells were incubated for 30 min on ice. The respective radiopeptides (5 MBq/nmol) were diluted in PBS at peptide concentrations 10‒16000 nM. A volume of 50 µL from each dilution was added to each well to obtain peptide concentrations in the range of […]. The assay was performed at 4 °C on ice, to prevent internalization of the radiopeptides. The radiopeptides were incubated on cells for 1 h on a shaker before rinsing twice with PBS (0.5 mL, pH 7.4). Increasing ligand concentrations were used to approximate saturation of the binding sites (Bmax value) at equilibrium. Ligand depletion effects of the ligand concentration in the supernatant of the cell samples were not taken into account. The cells were lysed using an aqueous NaOH solution (1 M, 600 µL) and the lysates were transferred to radioimmunoassay tubes for counting the activity in a γ-counter (Wallac Wizard 1480, PerkinElmer). The KD values were determined by plotting the specific binding (total binding minus unspecific binding) against the molar concentration of the added radiopeptide using GraphPad Prism software (version 10.1.1). The results were then expressed as average ± SD of n = 3 independent experiments.

Cc1ccc(CCCC(=O)NCCOCCOCCOCCOCCOCCC(=O)NCCCC[C@H](NC(=O)CN2CCN(CC(=O)O)CCN(CC(=O)O)CCN(CC(=O)O)CC2)C(=O)N[C@@H](CC(=O)O)C(=O)N[C@@H](CC2CCCCC2)C(=O)N[C@@H](Cc2ccccc2)C(=O)N[C@H](CO)C(=O)N[C@H](CCCNC(=N)N)C(=O)N[C@@H](Cc2ccc(O)cc2)C(=O)N[C@@H](CC(C)C)C(=O)N[C@@H](Cc2c[nH]c3ccccc23)C(=O)N[C@@H](CO)C(N)=O)cc1 [[^177Lu]Lu-uPAR-18, metal not drawn]
Human blood plasma stability, intact radiopeptide ([1]; 1 h): 100 ± 1%
Mouse blood plasma stability, intact radiopeptide ([1]; 1 h): 100 ± 1%
Human blood plasma stability, intact radiopeptide ([1]; 4 h): 99 ± 1%
Mouse blood plasma stability, intact radiopeptide ([1]; 4 h): 99 ± 2%
Human blood plasma stability, intact radiopeptide ([1]; 24 h): 95 ± 2%
Mouse blood plasma stability, intact radiopeptide ([1]; 24 h): 89 ± 3%
tissue uptake at 4 h (in vivo; Blood uptake): 3.4 ± 0.7 %ID/g
tissue uptake at 24 h (in vivo; Blood uptake): 0.05 %ID/g
tissue uptake at 4 h (in vivo; Bone uptake): 0.5 ± 0.04 %ID/g
tissue uptake at 24 h (in vivo; Bone uptake): 0.19 ± 0.01 %ID/g
tissue uptake at 4 h (in vivo; Brain uptake): 0.08 ± 0.01 %ID/g
tissue uptake at 24 h (in vivo; Brain uptake): < 0.03 %ID/g
tissue uptake at 4 h (in vivo; HEK-uPAR xenograft uptake): 14 ± 1 %ID/g
tissue uptake at 24 h (in vivo; HEK-uPAR xenograft uptake): 7.3 ± 0.4 %ID/g
tissue uptake at 4 h (in vivo; Heart uptake): 1.3 ± 0.2 %ID/g
tissue uptake at 24 h (in vivo; Heart uptake): 0.12 ± 0.01 %ID/g
tissue uptake at 4 h (in vivo; Intestines uptake): 0.58 ± 0.14 %ID/g
tissue uptake at 24 h (in vivo; Intestines uptake): 0.17 ± 0.02 %ID/g
tissue uptake at 4 h (in vivo; Kidneys uptake): 3.7 ± 0.4 %ID/g
tissue uptake at 24 h (in vivo; Kidneys uptake): 2.1 ± 0.2 %ID/g
tissue uptake at 4 h (in vivo; Liver uptake): 1.2 ± 0.1 %ID/g
tissue uptake at 24 h (in vivo; Liver uptake): 0.38 ± 0.06 %ID/g
tissue uptake at 4 h (in vivo; Lung uptake): 2.1 ± 0.4 %ID/g
tissue uptake at 24 h (in vivo; Lung uptake): 0.29 ± 0.02 %ID/g
tissue uptake at 4 h (in vivo; Muscle uptake): 0.37 ± 0.03 %ID/g
tissue uptake at 24 h (in vivo; Muscle uptake): 0.06 ± 0.01 %ID/g
tissue uptake at 4 h (in vivo; Pancreas uptake): 0.63 ± 0.27 %ID/g
tissue uptake at 24 h (in vivo; Pancreas uptake): 0.09 ± 0.01 %ID/g
tissue uptake at 4 h (in vivo; Salivary glands uptake): 0.87 ± 0.2 %ID/g
tissue uptake at 24 h (in vivo; Salivary glands uptake): 0.23 ± 0.03 %ID/g
tissue uptake at 4 h (in vivo; Spleen uptake): 0.77 ± 0.01 %ID/g
tissue uptake at 24 h (in vivo; Spleen uptake): 0.42 ± 0.04 %ID/g
tissue uptake at 4 h (in vivo; Stomach uptake): 0.54 ± 0.12 %ID/g
tissue uptake at 24 h (in vivo; Stomach uptake): 0.11 ± 0.02 %ID/g
Kd (human uPAR): 33 ± 4 nM

Source: publication PMC12920294, “Optimizing uPAR-targeting radiopeptides for improved tissue distribution: progress towards radionuclide therapy” (European Journal of Nuclear Medicine and Molecular Imaging, 2025)
